Earlier results as cited in patent EP4772635A1, “RNAI AGENT TARGETING APP AND PHARMACEUTICAL USE THEREOF” (Tuojie Biotech (Shanghai) Co., Ltd., priority 2023, dated 2025).

Conditions: octanol-water partition coefficient, illustrative values in the definitions

SMILES	logKow
NCCCCCCO [6-aminohexanol]	about 0.7
CC(C)CCC[C@@H](C)[C@H]1CC[C@H]2[C@@H]3CC=C4C[C@@H](OC(=O)NCCCCCCO)CC[C@]4(C)[C@H]3CC[C@]12C [cholesteryl N-(hexan-6-ol)carbamate]	10.7
